Measured values from article PMC5878090 (Journal of controlled release : official journal of the …, 2015).
pIC50, pKd: −log10 of the molar value.

Columns and labels:
U87MG cells [1] = test: Cell-cycle analysis; type: cell-based, human; conditions: 10 µM, 24 h, PI labeling
U87MG cells [2] = test: Anti-proliferation assay; type: cell-based; conditions: Homo sapiens, U-87 MG, 72 h, read-out: anti-proliferation IC50
[3] = system: U87MG subcutaneous xenografts; test: Anti-glioblastoma study in subcutaneous U87MG tumor model; type: in vivo, Balb/c nude mice; conditions: 50 mg/kg oral every 2 days until 9th day, n = 8; saline 8.3-fold
Integrin αvβ3 = Integrin αvβ3 (UniProt P06756); test: SPR

With `COc1ccc(C2=N[C@@H](c3ccc(Cl)cc3)[C@@H](c3ccc(Cl)cc3)N2C(=O)N2CCNC(=O)C2)c(OC(C)C)c1` [Nutlin-3] the cell-cycle arrest (U87MG cells [1]) was “effective cell-cycle arrest in the G1 and G2 phases” and the pIC50 (U87MG cells [2]) was 5.12.

`Cn1nnc2c(C(N)=O)ncn2c1=O` [TMZ, temozolomide] was tested, and the “tumor size fold increase on day 14 versus start of treatment” value [3] was 0.3 fold.

With “c(RGDyK)-conjugated poly(ethylene glycol)-block-poly(lactic acid) micelle carrying the sPMI peptide” the pKd (Integrin αvβ3) was 5.39.
